Test results published in paper PMC12133982, “Predominant T-cell epitopes of SARS-CoV-2 restricted by multiple prevalent HLA-B and HLA-C allotypes in Northeast Asia” (Frontiers in Immunology, 2025).
Like-named read-outs stand apart in the source and are kept apart here. Peptide text beside a SMILES is read from it.

What was measured:
HLA-C0801 = HLA-C0801 (Homo sapiens, UniProt P10321, A176T/A330V/A97T/C350S/D114A/D138N/D33Y/E201K/E299G/L171W/L218V/M285V/M309V/M331V/P208H/Q277E/Q291P/R59Q/S123Y/S140F/S297R/S48A/T329A/T363A/V319A/V328M); test: Competitive peptide binding assay, CIR-C0801; details: HMy2.CIR-C0801 cells, reference Cy5-[…], class from inhibition at 5 and 15 μM, flow cytometry MFI; read-out: Binding affinity with HLA-C0801
Description: (§1) Then, competitive peptide binding assays were performed.

HLA-C1402 = HLA-C1402 (Homo sapiens, UniProt P10321, A176E/A330V/A35S/A97T/C350S/D114A/D33S/L171W/L180R/L218V/M285V/M309V/M331V/P208H/Q277E/Q291P/R121W/R243W/S123F/S297R/S48A/T329A/T363A/V319A); test: Competitive peptide binding assay, CIR-C1402; details: HMy2.CIR-C1402 cells, reference Cy5-[…], class from inhibition at 5 and 15 μM, flow cytometry MFI; read-out: Binding affinity with HLA-C1402
Description: as §1

HLA-C0102 = HLA-C0102 (Homo sapiens, UniProt P10321, A176E/A330V/A35S/A97T/C350S/D114A/D33F/L171W/L180R/L218V/M285V/M309V/M331V/P208H/Q277E/Q291P/R121W/R243W/R30K/S123C/S140Y/S297R/T329A/T363A/V272M/V319A); test: Competitive peptide binding assay, CIR-C0102
Description: as §1

HLA-C0702 = HLA-C0702 (Homo sapiens, UniProt P10321); test: Competitive peptide binding assay, CIR-C0702
HLA-C0303 = HLA-C0303 (Homo sapiens, UniProt P10321, A176E/A330V/A97T/C25G/C350S/D114A/D33Y/E197K/G115R/L119I/L127V/L171W/L218V/M285V/M309V/M331V/P208H/Q277E/Q291P/R243W/R45H/S123Y/S140Y/S297R/S48A/T118I/T187L/T329A/T363A/V319A); test: Competitive peptide binding assay, CIR-C0303; details: HMy2.CIR-C0303 cells, reference Cy5-[…], class from inhibition at 5 and 15 μM, flow cytometry MFI; read-out: Binding affinity with HLA-C0303
Description: as §1

HLA-B5801 = HLA-B5801 (Homo sapiens, UniProt P01889, A329T/C349S/D201E/D98Y/E176V/E187L/E204Q/E69T/G107R/I218V/I90N/K202T/L105A/L119I/N104I/N87E/Q89R/Q94S/R106L/R155S/R180L/R86G/S101N/S121R/S35A/S48A/T118I/V127L/V306I/V36M/Y140S/Y91M); test: Competitive peptide binding assay, CIR-B5801; details: HMy2.CIR-B5801 cells, reference Cy5-[…], class from inhibition at 5 and 15 μM, flow cytometry MFI; read-out: Binding affinity with HLA-B5801
Description: as §1

HLA-B1502 = HLA-B1502 (Homo sapiens, UniProt P01889, A329T/A93T/A95T/C349S/D201E/D98Y/E187L/E204Q/E69M/E70A/H137Y/K202T/L119I/Q94N/R155S/R180L/S121R/S35A/S48A/T118I/V306I/V36M/Y140S/Y91S); test: Competitive peptide binding assay, CIR-B1502; details: HMy2.CIR-B1502 cells, reference Cy5-[…], class from inhibition at 5 and 15 μM, flow cytometry MFI; read-out: Binding affinity with HLA-B1502
Description: as §1

HLA-B4601 = HLA-B4601 (Homo sapiens, UniProt P01889, A329T/A93R/C349S/D201E/E100V/E187L/E204Q/E69M/E70A/I90K/K202T/N87E/R155S/R180W/S121R/S35A/S48A/V306I/V36M/Y140S); test: Competitive peptide binding assay, CIR-B4601; details: for IC50: HMy2.CIR-B4601 cells, reference Cy5-[…], class from inhibition at 5 and 15 μM, flow cytometry MFI, read-out: Binding affinity with HLA-B4601
Description: as §1

HLA-B1501 = HLA-B1501 (Homo sapiens, UniProt P01889, A329T/A93T/A95T/C349S/D201E/D98Y/E187L/E204Q/E69M/E70A/K202T/N87E/Q94N/R155S/R180W/S121R/S35A/S48A/V306I/V36M/Y140S/Y91S); test: Competitive peptide binding assay, CIR-B1501; details: HMy2.CIR-B1501 cells, reference Cy5-[…], class from inhibition at 5 and 15 μM, flow cytometry MFI; read-out: Binding affinity with HLA-B1501
Description: as §1

HLA-B0702 = biological target: T1, HLA-B0702 (Homo sapiens, UniProt P01889); test: Competitive peptide binding assay, CIR-B0702; details: HMy2.CIR-B0702 cells, reference Cy5-[…], class from inhibition at 5 and 15 μM, flow cytometry MFI
T1 construct: expressed in transfected cells; host or cells: HMy2.CIR
Description: as §1

HLA-B1301 = HLA-B1301 (Homo sapiens, UniProt P01889, A65T/A93T/A95T/D138N/D201E/D98Y/E176V/E204Q/E69M/E70A/G107R/K202T/L105A/L119I/N104T/N87E/Q94N/R106L/R155S/R169L/R180L/S101N/S121R/S35A/S48T/T118I/V127L/V36M/Y140L/Y91S); test: Competitive peptide binding assay, CIR-B1301; details: HMy2.CIR-B1301 cells, reference Cy5-[…], class from inhibition at 5 and 15 μM, flow cytometry MFI; read-out: Binding affinity with HLA-B1301
Description: as §1

HLA-C0602 = HLA-C0602 (Homo sapiens, UniProt P10321, A176E/A330V/C350S/L171W/L180W/L218V/M285V/M309V/M331V/N104K/P208H/Q277E/Q291P/R121W/S101N/S123Y/S297R/T329A/T363A/V319A/V328M); test: Competitive peptide binding assay, CIR-C0602
HLA-B3501 = HLA-B3501 (Homo sapiens, UniProt P01889, A329T/A93T/A95T/C349S/D201E/D98Y/E176V/E187L/E204Q/E69T/I218V/K202T/L119I/Q94N/R155S/R180L/S121R/S35A/S48A/T118I/V127L/V306I/V36M/Y140S/Y91F); test: Competitive peptide binding assay, CIR-B3501; details: HMy2.CIR-B3501 cells, reference Cy5-[…], class from inhibition at 5 and 15 μM, flow cytometry MFI; read-out: Binding affinity with HLA-B3501
Description: as §1

HLA-B1302 = HLA-B1302 (Homo sapiens, UniProt P01889, A65T/A93T/A95T/D138N/D201E/D98Y/E176V/E204Q/E69M/E70A/G107R/K202T/L105A/L119W/N104T/N87E/Q94N/R106L/R155S/R169L/R180L/S101N/S121T/S35A/S48T/V127L/V36M/Y140L/Y91S); test: Competitive peptide binding assay, CIR-B1302; details: HMy2.CIR-B1302 cells, reference Cy5-MMWYWGPSL, class from inhibition at 5 and 15 μM, flow cytometry MFI; read-out: Binding affinity with HLA-B1302
Description: as §1

HLA-C0304 = HLA-C0304 (Homo sapiens, UniProt P10321, A176E/A330V/A97T/C25G/C350S/D114A/D33Y/E197K/L119I/L127V/L171W/L218V/M285V/M309V/M331V/P208H/Q277E/Q291P/R243W/R45H/S123Y/S140Y/S297R/S48A/T118I/T187L/T329A/T363A/V319A); test: Competitive peptide binding assay, CIR-C0304; details: HMy2.CIR-C0304 cells, reference Cy5-[…], class from inhibition at 5 and 15 μM, flow cytometry MFI; read-out: Binding affinity with HLA-C0304
Description: as §1

HLA-C0302 = HLA-C0302 (Homo sapiens, UniProt P10321, A176E/A330V/A97T/C25G/C350S/D114A/D33Y/E197K/L127V/L171W/L218V/M285V/M309V/M331V/P208H/Q277E/Q291P/R243W/R45H/S123Y/S297R/S48A/T118I/T187L/T329A/T363A/V319A); test: Competitive peptide binding assay, CIR-C0302; details: HMy2.CIR-C0302 cells, reference Cy5-[…], class from inhibition at 5 and 15 μM, flow cytometry MFI; read-out: Binding affinity with HLA-C0302
Description: as §1

[1] = read-out: Inhibition % of Cy5-reference peptide binding

Compound	IC50 (HLA-C0801)	IC50 (HLA-C0702)	IC50 (HLA-C0303)	IC50 (HLA-B5801)	IC50 (HLA-B4601)	IC50 (HLA-B1501)	IC50 (HLA-B0702)	IC50 (HLA-B1301)	IC50 (HLA-B3501)	further results
CC(C)[C@H](NC(=O)[C@@H](NC(=O)[C@H](Cc1ccccc1)NC(=O)[C@@H]1CCCN1C(=O)[C@@H](NC(=O)CNC(=O)[C@H](CC(=O)O)NC(=O)[C@@H](NC(=O)[C@@H](N)Cc1ccccc1)C(C)C)C(C)C)C(C)C)C(=O)O [Epitope M96] (H-FVDGVPFVV-OH; N-terminus and C-terminus assumed)	< 5 µM	> 15 µM	> 15 µM							IC50 (HLA-C1402): 5 to 15 µM; IC50 (HLA-C0102): > 15 µM; inhibition at 5 µM (HLA-C0102; [1]): 3.72%; inhibition at 15 µM (HLA-C0102; [1]): 20.7%
CC(C)C[C@H](NC(=O)[C@H](CC(=O)O)NC(=O)[C@H](C)NC(=O)[C@H](C)NC(=O)[C@@H]1CCCN1C(=O)[C@@H](N)CC(C)C)C(=O)N[C@@H](CC(=O)O)C(=O)N[C@@H](CC(=O)O)C(=O)N[C@@H](Cc1ccccc1)C(=O)O [Epitope Y180] (H-LPAADLDDF-OH; N-terminus and C-terminus assumed)				> 15 µM	> 15 µM	5 to 15 µM	> 15 µM	> 15 µM		IC50 (HLA-B1502): > 15 µM
CC[C@H](C)[C@H](NC(=O)[C@H](Cc1ccccc1)NC(=O)[C@@H](N)Cc1ccc(O)cc1)C(=O)N[C@@H](C)C(=O)N[C@@H](CO)C(=O)N[C@@H](Cc1ccccc1)C(=O)N[C@@H](CCCNC(=N)N)C(=O)N[C@@H](CC(C)C)C(=O)N[C@@H](Cc1ccccc1)C(=O)O [Epitope M107] (H-YFIASFRLF-OH; N-terminus and C-terminus assumed)	> 15 µM	> 15 µM	5 to 15 µM							IC50 (HLA-C1402): < 5 µM; IC50 (HLA-C0602): > 15 µM
CSCC[C@H](NC(=O)[C@H](C)NC(=O)[C@@H](N)Cc1ccccc1)C(=O)N[C@@H](CCC(N)=O)C(=O)N[C@@H](CCSC)C(=O)N[C@@H](C)C(=O)N[C@@H](Cc1ccc(O)cc1)C(=O)N[C@@H](CCCNC(=N)N)C(=O)N[C@@H](Cc1ccccc1)C(=O)O [Epitope Y189]				> 15 µM	< 5 µM	> 15 µM	< 5 µM	5 to 15 µM	5 to 15 µM	IC50 (HLA-B1502): > 15 µM; inhibition at 5 µM (HLA-B4601; read-out: Inhibition % of Cy5-reference peptide binding, CIR-B4601, 5μM peptide): 74.8%; inhibition at 15 µM (HLA-B4601; read-out: Inhibition % of Cy5-reference peptide binding, CIR-B4601, 15μM peptide): 92.9%
CC(C)C[C@H](NC(=O)[C@H](CC(C)C)NC(=O)[C@@H](NC(=O)[C@@H](NC(=O)[C@@H](NC(=O)[C@H](CCC(N)=O)NC(=O)[C@H](CCC(N)=O)NC(=O)[C@H](CCCCN)NC(=O)[C@@H](N)CCCCN)[C@@H](C)O)C(C)C)[C@@H](C)O)C(=O)O [Epitope Y196] (H-KKQQTVTLL-OH; N-terminus and C-terminus assumed)				> 15 µM	< 5 µM	> 15 µM	> 15 µM	> 15 µM	> 15 µM	IC50 (HLA-B1302): 5 to 15 µM
CSCC[C@H](NC(=O)[C@H](CO)NC(=O)[C@H](CCC(N)=O)NC(=O)[C@H](CCC(N)=O)NC(=O)[C@H](CC(C)C)NC(=O)[C@H](CCC(N)=O)NC(=O)[C@H](CCCCN)NC(=O)[C@H](CO)NC(=O)[C@@H](N)Cc1ccccc1)C(=O)O [Epitope M14] (H-FSKQLQQSM-OH; N-terminus and C-terminus assumed)	> 15 µM	5 to 15 µM	< 5 µM							IC50 (HLA-C0304): 5 to 15 µM; IC50 (HLA-C0102; HMy2.CIR-C0102 cells, reference Cy5-[…], class from inhibition at 5 and 15 μM, flow cytometry MFI, read-out: Binding affinity with HLA-C0102): > 15 µM; IC50 (HLA-C0302): < 5 µM
CSCC[C@H](NC(=O)[C@H](CO)NC(=O)[C@H](CCC(N)=O)NC(=O)[C@H](CCC(N)=O)NC(=O)[C@H](CC(C)C)NC(=O)[C@H](CCC(N)=O)NC(=O)[C@H](CCCCN)NC(=O)[C@H](CO)NC(=O)[C@@H](N)Cc1ccccc1)C(=O)O [Epitope Y135] (H-FSKQLQQSM-OH; N-terminus and C-terminus assumed)				5 to 15 µM	< 5 µM	< 5 µM	5 to 15 µM	> 15 µM	> 15 µM	
